Measurements published in patent US20010049373A1, “Materials and methods for killing nematodes and nematode eggs” (priority 2000, published 2001).
“And” between values parts separate entries of the source, which are not always exact repeats. Identical values can stand only once.

Assays:
[1] = test system: gastrointestinal nematodes; assay: Sheep Test II: nematode recovery at necropsy, controlled test efficacy; format: in vivo; details: for Mean Ct., Abomasum Haemonchus / Mean Ct., Abomasum Ostertagia / Mean Ct., Large Intest. Trichuris / Mean Ct., Small Intest. Nematodirus / Mean Ct., Small Intestine Trichostrongylus: group mean; for Mean Ct., Abomasum Haemonchus / Mean Ct., Abomasum Ostertagia / Mean Ct., Large Intest. Trichuris / Mean Ct., Small Intest. Nematodirus / Mean Ct., Small Intestine Trichostrongylus / Worm Counts, Abomasum Haemonchus / Worm Counts, Abomasum ostertagia / Worm Counts, Large Intest. Trichuris / Worm Counts, Small Intest. Nematodirus / Worm Counts, Small Intestine Trichostrongylus: necropsy seven days following treatment; for Worm Counts, Abomasum Haemonchus / Worm Counts, Abomasum ostertagia / Worm Counts, Large Intest. Trichuris / Worm Counts, Small Intest. Nematodirus / Worm Counts, Small Intestine Trichostrongylus: individual sheep
Procedure: Sheep naturally infected with a variety of gastrointestinal nematodes are purchased from local sources and are transported to the test site. The animals are housed in a manner to preclude further infection by nematode larvae. The animals are evaluated for the presence of adequate nematode burdens by performing a standard fecal egg per gram (EPG) count. Eggs are differentiated into the following groups: trichostrongyle (strongyle), Strongyloides, Trichuris, or Nematodiris. Only sheep judged by the study parasitologist to have adequate nematode infections are retained as test subjects. The sheep are fed good quality hay (no concentrated rations) and water ad libitum. Following a five day acclimation period, the sheep are randomly assigned by EPG count into the following treatment groups: Groups 1-9, various anthelmintic compounds of the present invention (test compound) dissolved in DMSO: […] Group 11, non-treated Negative control (DMSO only). The first replicate of 1 I animals is randomly assigned to groups 1-1; the second replicate of 11 animals is randomly assigned to groups 1-11; and the third replicate of 11 animals is randomly assigned to groups 1-1. Thus 11 groups of 3 animals each are created. The placebo (DMSO), the commercially available drug, and the test anthelmintic compounds are administered in a 3 ml volume of DMSO by subcutaneous injection using a sterile syringe fitted with a sterile needle. The site of injection is clipped and swabbed with alcohol prior to injection. The animal is adequately immobilized for injection of the placebo, commercially available drug, or experimental compound. Seven days following treatment, all the sheep are weighed and humanely slaughtered in accordance with the Guide for the Care and Use of Laboratory Animals (DHEW Publication No. 86-23). Necropsy procedures are according to Zimmerman Research SOP # […].00.01, Necropsy for Helminth Recovery, specifically for gastrointestinal nematodes. Fecal samples are taken for EPG counts during the sample collection process on this day. Nematodes are recovered, identified, and enumerated according to Zimmerman Research SOP # […].00.01. All individuals performing nematode recoveries are blinded to treatment versus control animals.

[2] = test system: gastrointestinal nematodes (trichostrongyle, Strongyloides, Trichuris, Nematodirus eggs); assay: Sheep Test II: fecal egg per gram (EPG) counts; format: in vivo; details: for % Change, Strongyles EPG-5 day vs EPG-pre, Total/Mean / Strongyles EPG-5 day (22-May), Total/Mean / % Change, Strongyles EPG-7 day vs EPG-pre, Total/Mean / Strongyles EPG-7 day (24-May), Total/Mean: group mean; for % Change, Strongyles EPG-5 day vs EPG-pre, Total/Mean / Strongyles EPG-5 day (22-May), Total/Mean / Strongyles EPG-5 day (22-May): 5 days after treatment; for % Change, Strongyles EPG-7 day vs EPG-pre, Total/Mean / Strongyles EPG-7 day (24-May), Total/Mean / % Change, Strongyles EPG-7 day vs EPG-pre / Strongyles EPG-7 day (24-May): 7 days after treatment; for Strongyles EPG-5 day (22-May) / % Change, Strongyles EPG-7 day vs EPG-pre / Strongyles EPG-7 day (24-May): individual sheep
Procedure: Sheep naturally infected with a variety of gastrointestinal nematodes are purchased from local sources and are transported to the test site. The animals are housed in a manner to preclude further infection by nematode larvae. The animals are evaluated for the presence of adequate nematode burdens by performing a standard fecal egg per gram (EPG) count. Eggs are differentiated into the following groups: trichostrongyle (strongyle), Strongyloides, Trichuris, or Nematodiris. Only sheep judged by the study parasitologist to have adequate nematode infections are retained as test subjects.
The sheep are fed good quality hay (no concentrated rations) and water ad libitum. Following a five day acclimation period, the sheep are randomly assigned by EPG count into the following treatment groups: Groups 1-9, various anthelmintic compounds of the present invention (test compound) dissolved in DMSO: Group 10, Positive Control (commercially available ivermectin for sheep); Group 11, non-treated Negative control (DMSO only). The first replicate of 1 I animals is randomly assigned to groups 1-1; the second replicate of 11 animals is randomly assigned to groups 1-11; and the third replicate of 11 animals is randomly assigned to groups 1-1. Thus 11 groups of 3 animals each are created.
The randomization is performed on fecal samples collected 24-48 hours prior to scheduled treatment. The EPG counts are performed according to Zimmerman Research SOP # NMEPG.99.01.
The placebo (DMSO), the commercially available drug, and the test anthelmintic compounds are administered in a 3 ml volume of DMSO by subcutaneous injection using a sterile syringe fitted with a sterile needle. The site of injection is clipped and swabbed with alcohol prior to injection. The animal is adequately immobilized for injection of the placebo, commercially available drug, or experimental compound.
Following treatment, the animals are observed at hourly intervals for the first 8 hours, then daily until necropsy. They are housed in a manner to prevent further nematode infections.
On the fifth day following treatment, fecal samples are obtained from each animal, properly labeled and used for EPG counts.
Seven days following treatment, all the sheep are weighed and humanely slaughtered in accordance with the Guide for the Care and Use of Laboratory Animals (DHEW Publication No. 86-23). Necropsy procedures are according to Zimmerman Research SOP # NCRGIH.00.01, Necropsy for Helminth Recovery, specifically for gastrointestinal nematodes. Fecal samples are taken for EPG counts during the sample collection process on this day.

[3] = Ivermectin 200 mcg/kg, controlled test procedure

Molecule: 22,23-dihydroavermectin B1 [ivermectin]
- % Efficacy, Abomasum Haemonchus [1, 3]: 86%
- % Efficacy, Abomasum ostertagia [1, 3]: 100%
- % Efficacy, Small Intest. Nematodirus [1, 3]: 98%
- % Efficacy, Small Intestine Trichostrongylus [1, 3]: 100%
- Mean Ct., Abomasum Haemonchus ([1]; Ivermectin 200 mcg/kg): 7
- Mean Ct., Abomasum Ostertagia ([1]; Ivermectin 200 mcg/kg): 0
- Mean Ct., Large Intest. Trichuris ([1]; Ivermectin 200 mcg/kg): 0
- Mean Ct., Small Intest. Nematodirus ([1]; Ivermectin 200 mcg/kg): 67
- Mean Ct., Small Intestine Trichostrongylus ([1]; Ivermectin 200 mcg/kg): 0
- Worm Counts, Abomasum Haemonchus ([1]; Ivermectin 200 mcg/kg): 0 (2×) and 20
- Worm Counts, Abomasum ostertagia ([1]; Ivermectin 200 mcg/kg): 0
- Worm Counts, Large Intest. Trichuris ([1]; Ivermectin 200 mcg/kg): 0
- Worm Counts, Small Intest. Nematodirus ([1]; Ivermectin 200 mcg/kg): 100 (2×) and 0
- Worm Counts, Small Intestine Trichostrongylus ([1]; Ivermectin 200 mcg/kg): 0
- % Change, Strongyles EPG-5 day vs EPG-pre, Total/Mean ([2]; Ivermectin 200 mcg/kg): 100.00%
- Strongyles EPG-5 day (22-May), Total/Mean ([2]; Ivermectin 200 mcg/kg): 0.00 EPG
- % Change, Strongyles EPG-7 day vs EPG-pre, Total/Mean ([2]; Ivermectin 200 mcg/kg): 100.00%
- Strongyles EPG-7 day (24-May), Total/Mean ([2]; Ivermectin 200 mcg/kg): 0.00 EPG
- Strongyles EPG-5 day (22-May) ([2]; Ivermectin 200 mcg/kg): 0 EPG
- % Change, Strongyles EPG-7 day vs EPG-pre ([2]; Ivermectin 200 mcg/kg): 100.00%
- Strongyles EPG-7 day (24-May) ([2]; Ivermectin 200 mcg/kg): 0 EPG

Molecule: CCC1CCCCN1c1cc(Oc2ccc3oc4ccccc4c3c2)ncn1 (stereo not drawn) [AKC 109]
- % Efficacy, Abomasum Haemonchus ([1]; AKC 109 .8 mg/kg, controlled test procedure): 100%
- Mean Ct., Abomasum Haemonchus ([1]; AKC 109 .8 mg/kg): 0
- Mean Ct., Abomasum Ostertagia ([1]; AKC 109 .8 mg/kg): 690
- Mean Ct., Large Intest. Trichuris ([1]; AKC 109 .8 mg/kg): 3
- Mean Ct., Small Intest. Nematodirus ([1]; AKC 109 .8 mg/kg): 7120
- Mean Ct., Small Intestine Trichostrongylus ([1]; AKC 109 .8 mg/kg): 130
- Worm Counts, Abomasum Haemonchus ([1]; AKC 109 .8 mg/kg): 0
- Worm Counts, Abomasum ostertagia ([1]; AKC 109 .8 mg/kg): 1100 and 280
- Worm Counts, Large Intest. Trichuris ([1]; AKC 109 .8 mg/kg): 5 and 0
- Worm Counts, Small Intest. Nematodirus ([1]; AKC 109 .8 mg/kg): 12020 and 2220
- Worm Counts, Small Intestine Trichostrongylus ([1]; AKC 109 .8 mg/kg): 240 and 20
- % Change, Strongyles EPG-5 day vs EPG-pre, Total/Mean ([2]; AKC 109 .8 mg/kg): 51.49%
- Strongyles EPG-5 day (22-May), Total/Mean ([2]; AKC 109 .8 mg/kg): 245.00 EPG
- % Change, Strongyles EPG-7 day vs EPG-pre, Total/Mean ([2]; AKC 109 .8 mg/kg): 50.50%
- Strongyles EPG-7 day (24-May), Total/Mean ([2]; AKC 109 .8 mg/kg): 250.00 EPG
- Strongyles EPG-5 day (22-May) ([2]; AKC 109 .8 mg/kg): 360 EPG and 130 EPG
- % Change, Strongyles EPG-7 day vs EPG-pre ([2]; AKC 109 .8 mg/kg): 63.93% and 30.00%
- Strongyles EPG-7 day (24-May) ([2]; AKC 109 .8 mg/kg): 220 EPG and 280 EPG
